Measured values from patent publication US20040146535A1, “Agent for improving tissue penetration” (priority 2001, published 2004).
Values belong to the compound of their own block, whether it stands above or below them.

Assays:
[1] = test system: porcine brain microvascular endothelial cells (PBEC); assay: in vitro
Excerpt: (§1) Monolayers of primary cultures of porcine brain microvascular endothelial cells (PBEC) represent an in vitro model of the blood-brain barrier. They form monolayers under standard culture conditions both on various collagen coated solid substrates and permeable filters of polycarbonate. The PBEC-monolayer grows on the filter membranes in polarized manner with the apical side representing the capillary lumen but the basolateral side corresponding to brain tissue. As soon as the cells become confluent and build up a tight layer after 7 days PBEC are ready to be used for transport experiments. Due to the formation of functional tight junctions, they show a high transendothelial electrical resistance (TEER) and a tight barrier is created with biological properties similar to the cerebral capillary endothelium
(§2) The PBEC cells were cultivated in M199, which was supplemented with 10% OS, 0.7 mM L^−1 glutamine, 10,000 U·mL^−1 penicillin/streptomycin and 50·μg mL^−1 gentamicin at 37° C., 5% CO2 and saturated humidity. The cells were subcultivated after being detached with trypsin-EDTA solution and sown on Transwell(r) filter inserts (Costar®, Wiesbaden, Germany). The filters consist of polycarbonate with a surface of 1.13 cm2 and a pore diameter of 0.4 μm.
(§3) The growth of the PBEC into confluent, differentiated monolayers on Transwell® filter inserts was verified by measurements of the TEER. […] Fluorescein passes the monolayer paracellularly, whereas propranolol is transported transcellularly. The transport studies were carried out directly on the Transwell® plates. The culture medium M199 in the apical and the basolateral compartment was replaced by serum free medium DME/Ham's F12 supplemented as described for M199 and with 0.2 μg·mL^−1 hydrocortisone one day prior to the experiment. All transport experiments involving cell-cultures were carried out as triplicates. For application of substances on the apical side half of the medium of aspirated, mixed with appropriate stock solution of the substance to be investigated and replaced onto the filter. For qualification of transcellular transport by propranolol, KRB replaced the DME/Ham's F12 as transport buffer. For transport across cell free filter inserts, the complete medium in the apical compartment was removed, mixed with stock solution and replaced into the donor compartment. […] Propranolol was dissolved in KRB (pH 7.4). Samples were collected at 15′, 30′, 45′, 60′, and 90′ from the acceptor, at 0′ and 90′ from the donor compartment and the sample volume was replaced by fresh transport buffer. Prior to the experiment and after the final sampling, the TEER of the monolayers was measured.
(§4) The apparent permeability coefficient (Papp, [cm·s^−1]) was calculated according to equation 1, where dQ/dt is the permeability rate (steady state transport rate, [μg·s^−1]) obtained from the profile of the transported amount of the substrate against the time. A (1.13 cm^2) is the surface of the exposed cell monolayer, m0 the original mass [μg] of the marker substance in the donor compartment (VDonor 0.5 mL). The effective barrier function of the cell-layer is calculated from the apparent permeation coefficient and the permeation coefficient of the cell-free filter according to equation 2. In case that Papp is of higher magnitude than Pfilter, negative permeability coefficients would be calculated. Negative values for Peff are unsensical, thus an unhindered penetration of the cell-layer is to be drawn as conclusion. [formula]
(§5) In order to find an appropriate concentration affecting the permeation across the BBB, four different concentrations of hexyldiglycerol (HexylG2) were checked for their influence on fluorescein permeation and transendothelial electrical resistance.

in vitro = conditions: pig, permeability coefficient for fluorescein
Excerpt: as §1, §2, §3, §4, §5

[2] = test system: porcine brain microvascular endothelial cells (PBEC); assay: Transendothelial electrical resistance (TEER) of PBEC monolayers; assay type: cell-based
Procedure: […]. Propranolol was dissolved in KRB (pH 7.4).
Since a more distinct effect was expected from in vivo findings, a concentration of 75 mM HexylG2 was selected to be tested with further impermeable markers.

Peff, permeability coefficient of paracellular-transport marker ([1]; pig, 90 min): 0.96 ×10⁻⁶ cm/s
Compound: OCC(O)CO [^14C-glycerol, glycerol, reference compound]

Papp A→B at 90 min (in vitro; Papp): 0.28 ×10⁻⁶ cm/s
Papp A→B at 90 min (in vitro; Peff): 0.29 ×10⁻⁶ cm/s
Compound: O=C1OC2(c3ccc(O)cc3Oc3cc(O)ccc32)c2ccccc21 [fluorescein, reference compound]

Compound: hexyldiglycerol [HexylG2]
effect on the tightness of the model barrier (fluorescein permeation and TEER) ([1]; 0.1 mM, 1 mM and 10 mM of HexylG2): no effect
enhancement of the penetration (permeability) of fluorescein ([1]; 50 mM HexylG2 versus w/o): about twofold
monolayer permeability towards glucose, inulin and glycerol ([1]; treatment of PBEC monolayers, Example 4): significantly increased
change in TEER ([2]; 50 mM HexylG2 (Table 1 experiment)): decrease in TEER
change in TEER ([2]; 75 mM HexylG2 (Table 2 experiment)): complete loss of TEER
